ChEMBL document CHEMBL1129317, “Novel selective and partial agonists of 5-HT3 receptors. Part 1. Synthesis and biological evaluation of piperazinopyrrolothienopyrazines” (J Med Chem, 1996)

Experiments:
[1] = target: Gastrin/cholecystokinin type B receptor (Homo sapiens) (UniProt P32239); assay: Inhibitory activity against Cholecystokinin type B receptor using [3H]CCK-8 at […] (M)
[2] = target: T1, Serotonin 3 (5-HT3) receptor (Rattus norvegicus) (UniProt P35563+Q9JJ16); assay: Agonistic activity of compound towards 5-hydroxytryptamine 3 receptor in Von Bezold-Jarisch Reflex in rats at 120 (ug/kg), evaluated as change in heart rate; type: functional
[3] = target: Mu-type opioid receptor (Homo sapiens) (UniProt P35372); assay: Inhibitory activity against Opioid receptor mu 1 using [3H]DAMGO at 10e-5 (M)
[4] = target: Glutamate receptor ionotropic kainate (Homo sapiens) (UniProt P39086+Q16478+Q16099+Q13002+Q13003); assay: Inhibitory activity against Ionotropic glutamate receptor kainate using [3H]- Kainate at […] (M); type: protein-complex assay
[5] = target: GABA-A receptor; anion channel (Homo sapiens) (UniProt P14867+P47870+P18507+P28472+P48169+Q99928+Q9UN88+P34903+O00591+O14764+Q8N1C3+P18505+P78334+P47869+P31644+Q16445); assay: Inhibitory activity against Gamma-aminobutyric acid A (GABA-A) receptor using [3H]-muscimol at 10e-5 M; type: protein-complex assay
[6] = target: Muscarinic acetylcholine receptor M1 (Homo sapiens) (UniProt P11229); assay: Inhibitory activity against Muscarinic acetylcholine receptor M1 using [3H]pirenzepine at […] (M)
[7] = target: Interleukin-1 receptor type 1 (Homo sapiens) (UniProt P14778); assay: Inhibitory activity against Interleukin 1d using [3H]IL-1-alpha at […] (M)
[8] = target: Beta-1 adrenergic receptor (Homo sapiens) (UniProt P08588); assay: Inhibitory activity against Beta-1 adrenergic receptor using [3H]CGP-12177 at 10e-5 (M)
[9] = Inhibitory activity against Bradykinin receptor using [3H]bradykinin at […] (M)
[10] = target: Adenosine receptor A1 (Homo sapiens) (UniProt P30542); assay: Inhibitory activity against Adenosine A1 receptor using [3H]DPCPX at […] (M)
[11] = target: Delta-type opioid receptor (Rattus norvegicus) (UniProt P33533); assay: Inhibitory activity against Opioid receptor delta 1 using [3H]Cl-phe-DPDPE at 10e-5 (M)
[12] = target: Thyrotropin-releasing hormone receptor (Homo sapiens) (UniProt P34981); assay: Inhibitory activity against TRH using [3H]TRH at 10e-5 (M)
[13] = target: T1, Serotonin 3 (5-HT3) receptor (Rattus norvegicus); assay: Agonistic activity of compound towards 5-hydroxytryptamine 3 receptor in Von Bezold-Jarisch Reflex in rats at 60 (ug/kg), evaluated as change in heart rate; type: functional
[14] = target: Insulin receptor (Homo sapiens) (UniProt P06213); assay: Displacement of [3H]insulin from Insulin receptor at 10e-5 M
[15] = target: T2, 5-hydroxytryptamine receptor 1A (Homo sapiens, UniProt P08908); assay: Binding affinity for 5-hydroxytryptamine 1A receptor
T2 sequence (P08908 whole entry): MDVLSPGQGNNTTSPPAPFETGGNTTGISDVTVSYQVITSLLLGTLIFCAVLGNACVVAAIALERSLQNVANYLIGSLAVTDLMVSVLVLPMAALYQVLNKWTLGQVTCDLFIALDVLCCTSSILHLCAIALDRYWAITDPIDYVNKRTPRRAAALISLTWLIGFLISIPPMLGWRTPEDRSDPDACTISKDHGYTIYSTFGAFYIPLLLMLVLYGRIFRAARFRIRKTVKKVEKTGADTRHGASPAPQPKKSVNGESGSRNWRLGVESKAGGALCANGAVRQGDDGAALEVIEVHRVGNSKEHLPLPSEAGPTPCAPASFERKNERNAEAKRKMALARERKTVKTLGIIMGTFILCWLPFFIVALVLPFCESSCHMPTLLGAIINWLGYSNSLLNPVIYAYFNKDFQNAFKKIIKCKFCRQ

[16] = target: T1, Serotonin 3 (5-HT3) receptor (Rattus norvegicus); assay: Antagonistic activity of compound towards 5-hydroxytryptamine 3 receptor in Von Bezold-Jarisch reflex in rats at 60 (ug/kg), evaluated as percent inhibition of bradycardia; type: functional
[17] = target: D(2) dopamine receptor (Homo sapiens) (UniProt P14416); assay: (§1) In vitro displacement from Dopamine receptor D2; conditions: concentration not given here
[18] = Inhibition of [3H]batrachotoxin binding to sodium channel at 10e-5 M
[19] = target: D(2) dopamine receptor (Homo sapiens) (UniProt P14416); assay: as §1; conditions: concentration not given here; remark: listed apart in the source
[20] = target: Muscarinic acetylcholine receptor M2 (Homo sapiens) (UniProt P08172); assay: Inhibitory activity against Muscarinic acetylcholine receptor M2 using [3H]NMS at […] (M)
[21] = Inhibition of [3H]apamin binding to Potassium channel at 10e-5 M
[22] = target: Kappa-type opioid receptor (Homo sapiens) (UniProt P41145); assay: Inhibitory activity against Opioid receptor kappa 1 using [3H]U-69593 at 10e-7 (M)
[23] = Inhibitory activity against VIP using [125]VIP at 10e-5 (M)
[24] = target: Tumor necrosis factor receptor superfamily member 1A (Homo sapiens) (UniProt P19438); assay: Inhibitory activity against TNF using [125]TNF at 10e-5 (M)
[25] = target: Kappa-type opioid receptor (Homo sapiens) (UniProt P41145); assay: Inhibitory activity against Opioid receptor kappa 1 using [3H]U-69593 at 10e-5 (M)
[26] = target: Angiotensin II receptor (Homo sapiens) (UniProt P30556+P50052); assay: Inhibitory activity against Angiotensin II receptor using [3H]Angiotensin II at […] (M); type: protein assay
[27] = Inhibition of [3H]batrachotoxin binding to sodium channel at 10e-7 M
[28] = target: Cysteinyl leukotriene receptor 1 (Homo sapiens) (UniProt Q9Y271); assay: Inhibitory activity against Cysteinyl leukotriene D4 receptor using [3H]- LTD4 at […] (M)
[29] = target: Adrenergic receptor alpha-2 (Homo sapiens) (UniProt P08913+P18825+P18089); assay: Inhibitory activity against Alpha-2 adrenergic receptor using [3H]RX-821002 at 10e-5 (M); type: protein assay

D(2) dopamine receptor (Homo sapiens), sequence (P14416 whole entry): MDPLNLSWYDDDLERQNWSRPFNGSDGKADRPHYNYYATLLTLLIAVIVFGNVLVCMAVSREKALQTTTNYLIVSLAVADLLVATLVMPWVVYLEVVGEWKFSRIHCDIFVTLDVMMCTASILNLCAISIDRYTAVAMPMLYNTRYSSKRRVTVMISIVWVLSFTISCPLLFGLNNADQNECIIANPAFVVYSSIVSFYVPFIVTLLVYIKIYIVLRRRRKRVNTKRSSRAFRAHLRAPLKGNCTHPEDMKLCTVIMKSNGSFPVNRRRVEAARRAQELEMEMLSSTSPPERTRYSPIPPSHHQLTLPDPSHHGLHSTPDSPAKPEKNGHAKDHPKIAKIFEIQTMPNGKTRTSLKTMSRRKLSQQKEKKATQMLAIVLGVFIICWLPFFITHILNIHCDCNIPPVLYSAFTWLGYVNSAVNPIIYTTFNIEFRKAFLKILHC
Kappa-type opioid receptor (Homo sapiens), sequence (P41145 whole entry): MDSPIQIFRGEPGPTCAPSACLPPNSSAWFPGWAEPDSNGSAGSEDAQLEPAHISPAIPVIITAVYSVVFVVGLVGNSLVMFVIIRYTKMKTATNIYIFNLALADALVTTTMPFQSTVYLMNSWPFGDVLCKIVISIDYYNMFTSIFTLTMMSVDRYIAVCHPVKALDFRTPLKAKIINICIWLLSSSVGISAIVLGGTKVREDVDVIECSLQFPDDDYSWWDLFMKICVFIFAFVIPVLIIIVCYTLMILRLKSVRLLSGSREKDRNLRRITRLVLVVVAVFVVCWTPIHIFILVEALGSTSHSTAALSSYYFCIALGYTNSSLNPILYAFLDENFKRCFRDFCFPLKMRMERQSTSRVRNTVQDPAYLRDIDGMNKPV
Beta-1 adrenergic receptor (Homo sapiens), sequence (P08588 whole entry, looked up): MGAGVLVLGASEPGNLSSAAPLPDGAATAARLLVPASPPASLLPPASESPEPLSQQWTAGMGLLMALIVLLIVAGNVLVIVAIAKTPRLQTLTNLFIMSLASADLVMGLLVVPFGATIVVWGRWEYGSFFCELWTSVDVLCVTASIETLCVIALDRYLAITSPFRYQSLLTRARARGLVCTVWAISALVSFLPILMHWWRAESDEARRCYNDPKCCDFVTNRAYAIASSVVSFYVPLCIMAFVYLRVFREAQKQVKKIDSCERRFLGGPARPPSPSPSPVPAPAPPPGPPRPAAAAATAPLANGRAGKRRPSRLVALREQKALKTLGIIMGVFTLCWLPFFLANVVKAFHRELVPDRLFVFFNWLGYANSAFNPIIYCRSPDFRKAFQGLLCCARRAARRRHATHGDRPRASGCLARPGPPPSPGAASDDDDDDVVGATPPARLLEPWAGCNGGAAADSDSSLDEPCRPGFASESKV
Insulin receptor (Homo sapiens), sequence (P06213 28-758 limits assumed): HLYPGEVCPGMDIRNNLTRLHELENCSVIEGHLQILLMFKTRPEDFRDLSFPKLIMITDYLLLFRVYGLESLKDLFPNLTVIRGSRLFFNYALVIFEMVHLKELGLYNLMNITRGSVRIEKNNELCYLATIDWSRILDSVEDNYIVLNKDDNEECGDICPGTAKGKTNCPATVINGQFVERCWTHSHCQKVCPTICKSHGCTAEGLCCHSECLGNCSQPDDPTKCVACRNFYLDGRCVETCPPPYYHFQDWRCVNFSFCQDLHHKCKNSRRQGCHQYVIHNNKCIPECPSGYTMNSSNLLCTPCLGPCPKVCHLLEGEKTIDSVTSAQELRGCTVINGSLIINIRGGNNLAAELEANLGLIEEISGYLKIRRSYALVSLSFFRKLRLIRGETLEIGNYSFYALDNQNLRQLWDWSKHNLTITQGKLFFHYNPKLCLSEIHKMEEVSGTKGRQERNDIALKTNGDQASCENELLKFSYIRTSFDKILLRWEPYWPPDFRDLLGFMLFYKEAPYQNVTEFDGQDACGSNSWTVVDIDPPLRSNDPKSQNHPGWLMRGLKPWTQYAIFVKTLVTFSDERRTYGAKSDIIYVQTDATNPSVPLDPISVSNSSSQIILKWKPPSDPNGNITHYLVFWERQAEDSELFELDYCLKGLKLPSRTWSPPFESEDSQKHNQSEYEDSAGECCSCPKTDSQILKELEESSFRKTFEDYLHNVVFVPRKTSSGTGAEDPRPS
Insulin receptor (Homo sapiens), sequence (P06213 763-1382 limits assumed): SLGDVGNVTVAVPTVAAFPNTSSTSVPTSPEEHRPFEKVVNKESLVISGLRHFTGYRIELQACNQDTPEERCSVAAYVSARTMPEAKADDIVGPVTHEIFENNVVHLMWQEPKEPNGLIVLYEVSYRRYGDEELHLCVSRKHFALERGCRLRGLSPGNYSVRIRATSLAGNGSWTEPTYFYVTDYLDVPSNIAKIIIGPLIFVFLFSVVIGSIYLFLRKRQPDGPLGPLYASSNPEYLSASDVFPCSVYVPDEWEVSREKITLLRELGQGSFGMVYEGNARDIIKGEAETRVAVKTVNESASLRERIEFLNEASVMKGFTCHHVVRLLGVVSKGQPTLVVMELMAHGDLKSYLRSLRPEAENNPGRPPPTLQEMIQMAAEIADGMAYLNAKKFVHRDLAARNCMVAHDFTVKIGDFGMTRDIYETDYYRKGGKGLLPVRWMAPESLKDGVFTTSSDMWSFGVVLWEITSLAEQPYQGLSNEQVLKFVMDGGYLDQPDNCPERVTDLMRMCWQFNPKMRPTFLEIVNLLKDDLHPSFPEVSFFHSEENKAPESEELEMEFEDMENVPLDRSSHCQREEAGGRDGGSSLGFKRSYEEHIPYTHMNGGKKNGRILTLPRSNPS
Adenosine receptor A1 (Homo sapiens), sequence (P30542 whole entry): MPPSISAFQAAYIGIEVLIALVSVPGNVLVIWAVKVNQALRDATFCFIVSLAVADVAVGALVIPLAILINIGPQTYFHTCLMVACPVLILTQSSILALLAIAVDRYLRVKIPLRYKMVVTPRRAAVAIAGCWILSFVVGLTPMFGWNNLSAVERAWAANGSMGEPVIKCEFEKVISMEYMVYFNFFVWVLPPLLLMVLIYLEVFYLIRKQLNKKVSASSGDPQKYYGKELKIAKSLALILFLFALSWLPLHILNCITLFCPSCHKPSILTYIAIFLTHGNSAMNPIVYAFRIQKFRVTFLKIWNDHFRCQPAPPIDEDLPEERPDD
Tumor necrosis factor receptor superfamily member 1A (Homo sapiens), sequence (P19438 whole entry): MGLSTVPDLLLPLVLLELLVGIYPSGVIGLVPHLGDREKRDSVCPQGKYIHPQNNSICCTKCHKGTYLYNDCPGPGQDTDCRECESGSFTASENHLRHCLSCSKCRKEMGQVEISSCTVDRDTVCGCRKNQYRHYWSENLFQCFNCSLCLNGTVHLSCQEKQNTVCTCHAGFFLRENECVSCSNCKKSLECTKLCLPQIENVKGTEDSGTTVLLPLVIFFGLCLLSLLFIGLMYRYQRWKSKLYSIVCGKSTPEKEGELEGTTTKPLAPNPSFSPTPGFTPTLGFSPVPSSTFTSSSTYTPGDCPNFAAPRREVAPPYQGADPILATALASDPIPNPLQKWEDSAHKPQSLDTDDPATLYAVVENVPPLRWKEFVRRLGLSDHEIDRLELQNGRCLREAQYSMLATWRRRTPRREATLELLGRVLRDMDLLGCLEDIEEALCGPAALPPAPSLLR
Muscarinic acetylcholine receptor M1 (Homo sapiens), sequence (P11229 whole entry): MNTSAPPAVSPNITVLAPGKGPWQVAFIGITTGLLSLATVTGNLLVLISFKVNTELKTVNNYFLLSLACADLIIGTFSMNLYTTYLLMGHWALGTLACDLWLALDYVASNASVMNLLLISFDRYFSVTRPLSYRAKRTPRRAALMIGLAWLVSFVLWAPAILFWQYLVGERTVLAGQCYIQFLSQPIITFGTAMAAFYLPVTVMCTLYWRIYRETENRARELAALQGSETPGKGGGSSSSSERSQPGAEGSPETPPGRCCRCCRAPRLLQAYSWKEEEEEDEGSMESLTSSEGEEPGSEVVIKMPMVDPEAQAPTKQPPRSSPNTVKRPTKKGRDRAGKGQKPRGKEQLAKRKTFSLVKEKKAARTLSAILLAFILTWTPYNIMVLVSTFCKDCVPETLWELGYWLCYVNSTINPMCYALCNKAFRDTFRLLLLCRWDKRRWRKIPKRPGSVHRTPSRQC
Cysteinyl leukotriene receptor 1 (Homo sapiens), sequence (Q9Y271 whole entry): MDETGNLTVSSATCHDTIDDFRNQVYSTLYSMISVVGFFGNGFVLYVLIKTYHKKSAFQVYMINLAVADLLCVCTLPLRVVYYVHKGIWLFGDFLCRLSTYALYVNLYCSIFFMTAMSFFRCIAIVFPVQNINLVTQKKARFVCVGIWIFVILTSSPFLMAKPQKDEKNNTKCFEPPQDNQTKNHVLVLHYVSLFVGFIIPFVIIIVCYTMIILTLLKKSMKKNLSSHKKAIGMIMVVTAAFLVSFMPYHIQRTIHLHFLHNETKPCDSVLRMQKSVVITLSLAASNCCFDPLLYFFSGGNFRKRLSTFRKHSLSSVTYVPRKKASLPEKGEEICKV
Mu-type opioid receptor (Homo sapiens), sequence (P35372 whole entry): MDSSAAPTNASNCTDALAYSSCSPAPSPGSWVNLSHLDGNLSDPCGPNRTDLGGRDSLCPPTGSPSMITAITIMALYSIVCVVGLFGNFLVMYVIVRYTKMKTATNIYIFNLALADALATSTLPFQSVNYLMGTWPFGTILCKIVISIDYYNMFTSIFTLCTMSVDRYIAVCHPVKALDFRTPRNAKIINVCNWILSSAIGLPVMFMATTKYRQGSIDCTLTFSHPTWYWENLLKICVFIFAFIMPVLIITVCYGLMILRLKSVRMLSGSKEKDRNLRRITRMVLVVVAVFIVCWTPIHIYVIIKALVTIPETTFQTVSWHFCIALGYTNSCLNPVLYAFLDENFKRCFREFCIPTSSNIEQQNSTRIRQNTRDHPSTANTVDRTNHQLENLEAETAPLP

Structure (SMILES): c1ccc(CN2CCN(c3nc4ccsc4n4cccc34)CC2)cc1
- inhibition [1]: 18%
- Change [2]: 42%
- inhibition [3]: 29%
- inhibition [4]: 12%
- inhibition [5]: 31%
- inhibition [6]: 29%
- inhibition [7]: 1%
- inhibition [8]: 21%
- inhibition [9]: 28%
- inhibition [10]: 23%
- inhibition [11]: 14%
- inhibition [12]: 12%
- Change [13]: 0%
- inhibition [14]: 15%
- IC50 [15]: 398 nM
- Change [16]: 40%
- inhibition [17]: 86%
- inhibition [18]: 79%
- inhibition [19]: 5%
- inhibition [20]: 5%
- inhibition [21]: 6%
- inhibition [22]: 10%
- inhibition [23]: 6%
- inhibition [24]: 7%
- inhibition [25]: 55%
- inhibition [26]: 18%
- inhibition [27]: 28%
- inhibition [28]: 1%
- inhibition [29]: 29%
